Measured values taken from ChEMBL document CHEMBL1201862, “PubChem BioAssay data set” (2004).
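Assay format: 96-well plates, 48-hour exposure. Here, GI50 denotes the concentration required for 50% inhibition of growth.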 Calls of active or inactive are those of the source. No stated cut-off is given here; in the data, active = GI50 up to about 1.1 µM and inactive = higher.

Legend:
Test in all cases: inhibition of tumour cell growth, NCI panel, 48 h
A498 = tested on: A498
CAKI-1 = tested on: CAKI-1
HT-29 = tested on: HT-29
Hs-578T = tested on: Hs-578T
K562 = tested on: K562
LOX IMVI = tested on: LOX IMVI
MOLT-4 = tested on: MOLT-4
NCI-H23 = tested on: NCI-H23
NCI-H460 = tested on: NCI-H460
PC-3 = tested on: PC-3
RPMI-8226 = tested on: RPMI-8226
SF-295 = tested on: SF-295
SK-MEL-28 = tested on: SK-MEL-28
SK-MEL-5 = tested on: SK-MEL-5
SNB-19 = tested on: SNB-19
T47D = tested on: T47D
BT-549 = tested on: BT-549
M14 = tested on: M14
MCF7 = tested on: MCF7
OVCAR-3 = tested on: OVCAR-3

SMILES	GI50 (A498)	GI50 (CAKI-1)	GI50 (HT-29)	GI50 (Hs-578T)	GI50 (K562)	GI50 (LOX IMVI)	GI50 (MOLT-4)	GI50 (NCI-H23)	GI50 (NCI-H460)	GI50 (PC-3)	GI50 (RPMI-8226)	GI50 (SF-295)	GI50 (SK-MEL-28)	GI50 (SK-MEL-5)	GI50 (SNB-19)	GI50 (T47D)	GI50 (BT-549)	GI50 (M14)	GI50 (MCF7)	GI50 (OVCAR-3)
c1ccc(/N=C2\SC(=NNc3ccccc3)S\C2=N/c2ccccc2)cc1	> 100 µM (inactive)	> 100 µM (inactive)	45.4 µM (inactive)	32.8 µM (inactive)	> 100 µM (inactive)	13 µM (inactive)	> 100 µM (inactive)	> 100 µM (inactive)	15.5 µM (inactive)	19.5 µM (inactive)	> 100 µM (inactive)	25.6 µM (inactive)	> 100 µM (inactive)	44.9 µM (inactive)	72.6 µM (inactive)	74.1 µM (inactive)	–	–	–	–
O=C1C=C(c2c(O)ccc3ccccc23)c2ccccc2C1=O	8.51 µM (inactive)	7.93 µM (inactive)	6.97 µM (inactive)	–	3.08 µM (inactive)	1.77 µM (inactive)	1.72 µM (inactive)	2.15 µM (inactive)	6.32 µM (inactive)	2.12 µM (inactive)	2.35 µM (inactive)	4.19 µM (inactive)	9.95 µM (inactive)	2.51 µM (inactive)	5.96 µM (inactive)	–	2.48 µM (inactive)	4.69 µM (inactive)	< 0.01 µM (active)	2.32 µM (inactive)
O=C(Nc1ccc([As](=O)(O)O)cc1)Nc1cccc(Cl)c1Cl	> 100 µM (inactive)	> 100 µM (inactive)	> 100 µM (inactive)	20.5 µM (inactive)	97.5 µM (inactive)	> 100 µM (inactive)	–	> 100 µM (inactive)	> 100 µM (inactive)	83.9 µM (inactive)	> 100 µM (inactive)	65.5 µM (inactive)	> 100 µM (inactive)	> 100 µM (inactive)	86.1 µM (inactive)	–	> 100 µM (inactive)	> 100 µM (inactive)	> 100 µM (inactive)	> 100 µM (inactive)
COC(=O)[C@@H]1C[C@@H]2c3ccccc3N(S(=O)(=O)c3ccccc3)[C@@H]2N1C(=O)OC	–	> 100 µM (inactive)	> 100 µM (inactive)	> 100 µM (inactive)	> 100 µM (inactive)	> 100 µM (inactive)	> 100 µM (inactive)	37.1 µM (inactive)	> 100 µM (inactive)	> 100 µM (inactive)	> 100 µM (inactive)	> 100 µM (inactive)	> 100 µM (inactive)	> 100 µM (inactive)	> 100 µM (inactive)	–	> 100 µM (inactive)	–	> 100 µM (inactive)	> 100 µM (inactive)
O=C(O)c1ccc2c(c1)Cc1cc([N+](=O)[O-])ccc1-2	44 µM (inactive)	71.4 µM (inactive)	> 100 µM (inactive)	76.9 µM (inactive)	73.5 µM (inactive)	> 100 µM (inactive)	> 100 µM (inactive)	> 100 µM (inactive)	> 100 µM (inactive)	–	0.546 µM (active)	90.8 µM (inactive)	> 100 µM (inactive)	> 100 µM (inactive)	> 100 µM (inactive)	> 100 µM (inactive)	> 100 µM (inactive)	> 100 µM (inactive)	> 100 µM (inactive)	> 100 µM (inactive)
CCc1n[nH]c(=O)n1NC(=O)c1ccccc1C(=O)O	–	–	> 100 µM (inactive)	–	> 100 µM (inactive)	> 100 µM (inactive)	> 100 µM (inactive)	> 100 µM (inactive)	–	> 100 µM (inactive)	> 100 µM (inactive)	> 100 µM (inactive)	> 100 µM (inactive)	> 100 µM (inactive)	> 100 µM (inactive)	–	> 100 µM (inactive)	> 100 µM (inactive)	> 100 µM (inactive)	> 100 µM (inactive)
CC(C)(C)OC/C=C(/CO)[C@@H]1C=C[C@H](O)C1	> 100 µM (inactive)	> 100 µM (inactive)	> 100 µM (inactive)	–	> 100 µM (inactive)	–	> 100 µM (inactive)	> 100 µM (inactive)	> 100 µM (inactive)	> 100 µM (inactive)	> 100 µM (inactive)	> 100 µM (inactive)	> 100 µM (inactive)	–	> 100 µM (inactive)	> 100 µM (inactive)	> 100 µM (inactive)	> 100 µM (inactive)	> 100 µM (inactive)	> 100 µM (inactive)
COC(=O)c1ccc2c(c1)CC1(C2)Cc2cc3c(cc2C1=O)CCC3 (stereo not given)	64.3 µM (inactive)	14.6 µM (inactive)	15.4 µM (inactive)	77.4 µM (inactive)	17.5 µM (inactive)	24.3 µM (inactive)	10.9 µM (inactive)	43.6 µM (inactive)	37.2 µM (inactive)	39.4 µM (inactive)	13.2 µM (inactive)	56.5 µM (inactive)	46.1 µM (inactive)	9.18 µM (inactive)	> 100 µM (inactive)	42.5 µM (inactive)	–	19.2 µM (inactive)	20.9 µM (inactive)	26.7 µM (inactive)
CCCCCCCCCCOC1C(C(O)CNCCCN(C)C)OC2OC3(CCCCC3)OC21 (stereo not given)	–	1.75 µM (inactive)	1.62 µM (inactive)	3.17 µM (inactive)	1.63 µM (inactive)	1.09 µM (active)	1.77 µM (inactive)	1.48 µM (inactive)	1.97 µM (inactive)	2.26 µM (inactive)	1.94 µM (inactive)	1.86 µM (inactive)	1.66 µM (inactive)	1.89 µM (inactive)	1.75 µM (inactive)	2.75 µM (inactive)	–	2 µM (inactive)	2.07 µM (inactive)	1.96 µM (inactive)
CC(C)CCNC(=O)c1ccc(CNC(=O)/C=C/c2ccc(-c3ccccc3[N+](=O)[O-])o2)cc1	–	46.3 µM (inactive)	–	–	82.6 µM (inactive)	> 100 µM (inactive)	> 100 µM (inactive)	82.8 µM (inactive)	> 100 µM (inactive)	> 100 µM (inactive)	96.8 µM (inactive)	42.7 µM (inactive)	16.6 µM (inactive)	18.1 µM (inactive)	22.7 µM (inactive)	12.2 µM (inactive)	–	> 100 µM (inactive)	68.5 µM (inactive)	94.8 µM (inactive)
CC1=CCC[C@]2(C)C1=CC(=O)O[C@H]2c1ccoc1	> 100 µM (inactive)	> 100 µM (inactive)	> 100 µM (inactive)	> 100 µM (inactive)	> 100 µM (inactive)	> 100 µM (inactive)	> 100 µM (inactive)	> 100 µM (inactive)	> 100 µM (inactive)	> 100 µM (inactive)	> 100 µM (inactive)	> 100 µM (inactive)	> 100 µM (inactive)	> 100 µM (inactive)	23.6 µM (inactive)	> 100 µM (inactive)	–	–	> 100 µM (inactive)	> 100 µM (inactive)
Nc1ccc2c(=O)cc(-c3ccc(Br)s3)[nH]c2n1	3.21 µM (inactive)	4.46 µM (inactive)	4.74 µM (inactive)	2.36 µM (inactive)	0.522 µM (active)	4.69 µM (inactive)	2.33 µM (inactive)	2.22 µM (inactive)	4.16 µM (inactive)	2.74 µM (inactive)	1.89 µM (inactive)	2.83 µM (inactive)	3.08 µM (inactive)	1.35 µM (inactive)	4.63 µM (inactive)	4.16 µM (inactive)	–	3.12 µM (inactive)	2.15 µM (inactive)	3.18 µM (inactive)
O=C(OC1C#CCSCC#C/C=C\1)c1cnc2ccccc2n1 (stereo not given)	40 µM (inactive)	–	> 100 µM (inactive)	29.8 µM (inactive)	19.7 µM (inactive)	> 100 µM (inactive)	–	> 100 µM (inactive)	14.1 µM (inactive)	> 100 µM (inactive)	–	> 100 µM (inactive)	> 100 µM (inactive)	–	> 100 µM (inactive)	–	> 100 µM (inactive)	> 100 µM (inactive)	> 100 µM (inactive)	> 100 µM (inactive)
CC1C(c2ccccc2)O[B-](F)(c2ccccc2)[NH+]1C (stereo not given)	> 100 µM (inactive)	–	> 100 µM (inactive)	–	> 100 µM (inactive)	> 100 µM (inactive)	> 100 µM (inactive)	> 100 µM (inactive)	> 100 µM (inactive)	> 100 µM (inactive)	> 100 µM (inactive)	> 100 µM (inactive)	> 100 µM (inactive)	> 100 µM (inactive)	> 100 µM (inactive)	> 100 µM (inactive)	> 100 µM (inactive)	> 100 µM (inactive)	> 100 µM (inactive)	> 100 µM (inactive)
Nc1nc(N)c2cc(S(=O)(=O)c3ccc4ccccc4c3)ccc2n1	–	4.83 µM (inactive)	–	8.39 µM (inactive)	0.541 µM (active)	0.766 µM (active)	–	4.27 µM (inactive)	0.573 µM (active)	1.58 µM (inactive)	> 100 µM (inactive)	1.55 µM (inactive)	> 100 µM (inactive)	11.9 µM (inactive)	6.03 µM (inactive)	1.46 µM (inactive)	11.7 µM (inactive)	–	–	> 100 µM (inactive)
O=C1Cc2c([nH]c3ccc(Br)cc23)-c2cc(Br)ccc2N1	> 100 µM (inactive)	> 100 µM (inactive)	–	–	> 100 µM (inactive)	> 100 µM (inactive)	86.3 µM (inactive)	> 100 µM (inactive)	> 100 µM (inactive)	> 100 µM (inactive)	> 100 µM (inactive)	> 100 µM (inactive)	> 100 µM (inactive)	> 100 µM (inactive)	> 100 µM (inactive)	> 100 µM (inactive)	> 100 µM (inactive)	> 100 µM (inactive)	> 100 µM (inactive)	–
